# Laboratory results published in US20250144230A1, “LINKERS FOR USE IN ANTIBODY DRUG CONJUGATES” (Orum Therapeutics, Inc., priority 2021, published 2025).
# Where a SMILES comes first, the peptide text is derived from it. The star is where a group is joined. X1 = CSCCc1ccc(NC(=O)NCc2ccc3c(c2)CN(C2CCC(=O)N(CN*)C2=O)C3=O)cc1Cl; Hexanoyl(6-maleimido) = O=C1C=CC(=O)N1CCCCCC(=O)*
# T1: papain (Carica papaya, UniProt P00784)
# T1 sequence (P00784 134-345): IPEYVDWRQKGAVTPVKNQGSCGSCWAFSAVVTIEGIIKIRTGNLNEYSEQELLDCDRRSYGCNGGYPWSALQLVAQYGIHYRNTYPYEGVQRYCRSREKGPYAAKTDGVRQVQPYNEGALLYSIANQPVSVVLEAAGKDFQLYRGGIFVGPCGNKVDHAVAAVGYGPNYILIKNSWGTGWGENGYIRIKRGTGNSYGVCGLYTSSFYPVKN
# B1: CD33-D Antibody-Compound (XL) conjugate (antibody, V domains shown)
# VH: EVQLVQSGAEVKKPGSSVKVSCKASGYTITDSNIHWVRQAPGQSLEWIGYIYPYNGGTDYNQKFKNRATLTVDNPTNTAYMELSSLRSEDTAFYYCVNGNPWLAYWGQGTLVTVSS
# VL: DIQLTQSPSTLSASVGDRVTITCRASESLDNYGIRFLTWFQQKPGKAPKLLMYAASNQGSGVPSRFSGSGSGTEFTLTISSLQPDDFATYYCQQTKEVPWSFGQGTKVEVK
# modifications: Compound (XL) linker-payload on reduced interchain cysteine of the constant region, outside this domain; Compound (XL) linker-payload (maleimide) on reduced interchain cysteines of the constant regions, outside this domain; 8.0 Compound (XL)/antibody by LC-MS (Example 2-1)
# notes: Antibody-drug conjugate (BRD4 degrader payload)
# B2: CD33-D antibody (antibody, V domains shown)
# VH: B1 VH
# VL: B1 VL
# notes: also called anti-CD33 antibody CD33-D
# B3: CD33-D Antibody-Compound (XIV) conjugate (antibody, V domains shown)
# VH: B1 VH
# VL: B1 VL
# modifications: Compound (XIV) linker-payload on reduced interchain cysteine of the constant region, outside this domain; Compound (XIV) linker-payload on reduced interchain cysteines of the constant regions, outside this domain; 7.9 Compound (XIV)/antibody by LC-MS (Example 2-2)
# notes: Antibody-drug conjugate
# Tests used:
# [1] = test system: MV-4-11 human acute myeloid leukemia cells; assay: In vivo MV-4-11 subcutaneous myeloid leukemia tumor model; design: species or system Athymic Nude mice; details: 10 mg/kg IP once a day for 14 days
# Method: Subcutaneous tumor model—MV-4-11 human acute myeloid leukemia cells (1×10^7 cells in 0.1 mL) were subcutaneously inoculated into the right flank of female Athymic Nude mice. Mice were treated with each test article when the tumor size reached 100-150 mm^3. 10 mg/kg of CD33-D antibody-Compound (XL) conjugate (in 20 mM succinate, 8% sucrose, 0.01% Tween-20 pH 5.5) was delivered by intravenous administration (IV) once a week for 2 weeks. 0.4 mg/kg of Compound (XL) (in 5% NMP, 45% PEG300, 20 mM NaPi pH 6.5) and 10 mg/kg of ARV-825 (as described in Liu, et al. Chemistry & Biology 2015, volume 22, pages 755-763) in 1.5 mg/mL, 5% Kolliphor, HS15 WFI Buffer was treated by intraperitoneal administration (IP) once a day for 14 days. Tumor size and mouse body weight were measured twice per week. Subcutaneous tumor volume (mm^3) was calculated with the following formula: (a×b^2/2) where ‘b’ is the smallest diameter and ‘a’ is the largest diameter. The study endpoint is that individual mice were euthanized following respective tumor volume ≥1,000 mm^3 or day 60, whichever came first.
# [2] = biological target: T1, papain; assay: Papain digestion 2 of linker-payload compounds, in vitro payload release; type: biochemical; details: for % Payload Released / By-Products: GGFG*G (payload-CH2NHC(O)CH2NH2, cleavage between two glycines of linker) / By-Products: uncleaved: 10 μM compound, papain 2 molar equivalents, 2 hours; for % Payload Released: PBS pH 7.4, 5% DMA, room temperature; for By-Products: GGFG*G (payload-CH2NHC(O)CH2NH2, cleavage between two glycines of linker) / By-Products: uncleaved: PBS pH 7.4, room temperature; for yield of desired payload released by papain (in words): papain treatment
# Method: 10 μM of either Compound (XL), Compound (XI), Compound (XIV), Compound (XV), Compound (XII), or Compound (XVII) (PBS pH 7.4, 5% DMA co-solvent) was incubated with papain (2 molar equivalents) at room temperature for 2 hours with gentle shaking. The digests were extracted with 5 volumes of ice-cold acetonitrile and dried down, followed by reconstitution in 95:5:0.1 water:acetonitrile:formic acid. The samples were submitted for LC-MS analysis (Thermo Exploris 240) and using the appropriate reference standards, the released payload and/or incompletely cleaved linker byproducts were identified and quantified.
# [3] = biological target: T2, β-glucuronidase (Escherichia coli, UniProt P05804); assay: β-Glucuronidase digestion, in vitro payload release; type: biochemical
# T2 construct: purchased Sigma Type IX-A
# T2 sequence (P05804 whole entry): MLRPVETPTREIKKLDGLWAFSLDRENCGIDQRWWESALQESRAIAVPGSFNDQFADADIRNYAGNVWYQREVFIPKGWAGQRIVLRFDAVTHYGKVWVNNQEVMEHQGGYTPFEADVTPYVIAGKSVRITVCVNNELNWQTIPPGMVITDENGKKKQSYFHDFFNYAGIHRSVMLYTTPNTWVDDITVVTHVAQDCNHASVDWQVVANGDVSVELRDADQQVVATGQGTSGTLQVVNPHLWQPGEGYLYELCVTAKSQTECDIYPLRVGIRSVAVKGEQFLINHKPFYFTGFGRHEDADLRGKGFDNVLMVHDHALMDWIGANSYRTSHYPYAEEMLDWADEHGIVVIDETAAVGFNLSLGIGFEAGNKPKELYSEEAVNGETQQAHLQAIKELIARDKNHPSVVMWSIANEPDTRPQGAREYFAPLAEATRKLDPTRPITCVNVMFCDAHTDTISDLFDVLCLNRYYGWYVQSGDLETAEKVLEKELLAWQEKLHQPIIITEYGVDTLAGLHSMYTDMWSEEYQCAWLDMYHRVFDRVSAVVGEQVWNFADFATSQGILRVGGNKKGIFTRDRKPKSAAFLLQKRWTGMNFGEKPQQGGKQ
# Method: 10 μM Compound (XLI) was incubated with β-glucuronidase (Sigma, Type IX-A; 1 mg/mL solution in PBS, […]) and the reaction mixture was incubated at 37° C. for 3 hours with gentle shaking. The digests were extracted with 5 volumes of ice-cold acetonitrile and dried down, followed by reconstitution in 95:5:0.1 water:acetonitrile:formic acid. The samples were submitted for LC-MS analysis (Thermo Exploris 240) and using the appropriate reference standards, the released payload and/or incompletely cleaved linker byproducts were identified and quantified.
# [4] = biological target: T3, CD33 (UniProt P20138 18-364, limits assumed); assay: flow cytometry binding to MV4-11 cells (procedure of Example 10)
# T3 construct: whole, on cells; Endogenous antigen on the cell line; also called CD33 surface antigens
# T3 sequence (P20138 18-364 limits assumed): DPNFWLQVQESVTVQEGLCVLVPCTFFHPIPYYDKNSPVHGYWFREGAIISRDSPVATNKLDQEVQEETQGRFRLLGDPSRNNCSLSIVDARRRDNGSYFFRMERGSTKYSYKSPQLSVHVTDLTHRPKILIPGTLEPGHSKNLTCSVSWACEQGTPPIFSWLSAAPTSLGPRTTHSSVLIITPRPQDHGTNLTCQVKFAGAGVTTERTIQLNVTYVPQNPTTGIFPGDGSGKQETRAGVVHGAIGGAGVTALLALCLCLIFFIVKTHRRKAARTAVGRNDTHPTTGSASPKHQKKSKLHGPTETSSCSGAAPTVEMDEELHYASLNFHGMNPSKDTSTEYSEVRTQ
Molecule,% Payload Released [2],"By-Products: GGFG*G (payload-CH2NHC(O)CH2NH2, cleavage between two glycines of linker) [2]",By-Products: uncleaved [2],yield of desired payload released by papain (in words) [2],other results
Cc1sc2c(c1C)C(c1ccc(Cl)cc1)=N[C@@H](CC(=O)Nc1ccc(OCCOCCOCCOCCNc3cccc4c3C(=O)N(C3CCC(=O)NC3=O)C4=O)cc1)c1nnc(C)n1-2 (some centres unmarked) [ARV-825],,,,,effect on MV-4-11 tumor growth [1]: inactive
"O=C(CCCCCN1C(=O)C=CC1=O)NCC(=O)NCC(=O)N[C@@H](Cc1ccccc1)C(=O)NCC(=O)NCC(=O)NCN1C(=O)CCC(N2Cc3c(C#CCCCNC(=O)c4ccc(NC(=O)[C@@H]5NC6(CCCCC6)[C@@]6(C(=O)Nc7cc(Cl)ccc76)[C@H]5c5cccc(Cl)c5F)cc4)cccc3C2=O)C1=O (stereo partly drawn) [Compound (XII), (3′R,4'S,5′R)-6″-chloro-4′-(3-chloro-2-fluorophenyl)-N-(4-{[5-(2-{1-[(2-{2-[(2S)-2-(2-{2-[6-(2,5-dioxopyrrol-1-yl)hexanamido]acetamido}acetamido)-3-phenylpropanamido]acetamido}acetamido)methyl]-2,6-dioxopiperidin-3-yl}-1-oxo-3H-isoindol-4-yl)pent-4-yn-1-yl]carbamoyl}phenyl)-2″-oxo-1″H-dispiro[cyclohexane-1,2′-pyrrolidine-3′,3″-indole]-5′-carboxamide]",9.4%,"57.0%,",uncleaved 33.6%,lower yields of the desired payload,
"Cc1sc2c(c1C)C(c1ccc(Cl)cc1)=N[C@@H](CC(=O)NCCCCCC(=O)NCc1cccc3c1C(=O)N(C1CCC(=O)N(CNC(=O)CNC(=O)CNC(=O)[C@H](Cc4ccccc4)NC(=O)CNC(=O)CNC(=O)CCCCCN4C(=O)C=CC4=O)C1=O)C3=O)c1nnc(C)n1-2 (stereo partly drawn) [Compound (XIV), 6-{2-[(9S)-7-(4-chlorophenyl)-4,5,13-trimethyl-3-thia-1,8,11,12-tetraazatricyclo[8.3.0.0^{2,6}]trideca-2(6),4,7,10,12-pentaen-9-yl]acetamido}-N-[(2-{1-[(2-{2-[(2S)-2-(2-{2-[6-(2,5-dioxopyrrol-1-yl)hexanamido]acetamido}acetamido)-3-phenylpropanamido]acetamido}acetamido)methyl]-2,6-dioxopiperidin-3-yl}-1,3-dioxoisoindol-4-yl)methyl]hexanamide]",11.6%,"40.5%,",uncleaved 47.9%,lower yields of the desired payload,
"Cn1cc(-c2cc(NC(=O)CCCCC(=O)NCCCCNc3cccc4c3C(=O)N(C3CCC(=O)N(CNC(=O)CNC(=O)[C@H](Cc5ccccc5)NC(=O)CNC(=O)CNC(=O)CCCCCN5C(=O)C=CC5=O)C3=O)C4=O)ccc2Oc2ccc(F)cc2F)c2cc[nH]c2c1=O.O=C(O)C(F)(F)F (stereo partly drawn) [Compound (XL), N′-[4-(2,4-difluorophenoxy)-3-{6-methyl-7-oxo-1H-pyrrolo[2,3-c]pyridin-4-yl}phenyl]-N-[4-({2-[1-({2-[(2S)-2-(2-{2-[6-(2,5-dioxopyrrol-1-yl)hexanamido]acetamido}acetamido)-3-phenylpropanamido]acetamido}methyl)-2,6-dioxopiperidin-3-yl]-1,3-dioxoisoindol-4-yl}amino)butyl]hexanediamide; trifluoroacetic acid]",90.2%,,,excellent yield,
"CNCCOCCc1ccc(NC(=O)NCc2ccc3c(c2)CN(C2CCC(=O)N(CN(C)C(=O)OCc4ccc(O[C@@H]5O[C@H](C(=O)O)[C@@H](O)[C@H](O)[C@H]5O)c(NC(=O)CCNC(=O)CCN5C(=O)C=CC5=O)c4)C2=O)C3=O)cc1Cl (stereo partly drawn) [Compound (XLI), (2S,3S,4S,5R,6S)-6-[4-({[({3-[5-({[(3-chloro-4-{2-[2-(methylamino)ethoxy]ethyl}phenyl)carbamoyl]amino}methyl)-1-oxo-3H-isoindol-2-yl]-2,6-dioxopiperidin-1-yl}methyl)(methyl)carbamoyl]oxy}methyl)-2-{3-[3-(2,5-dioxopyrrol-1-yl)propanamido]propanamido}phenoxy]-3,4,5-trihydroxyoxane-2-carboxylic acid]",,,,,"% Payload Released ([3]; 10 μM compound, β-glucuronidase, 37° C., 3 hours): 90.9%; yield of desired payload released by β-glucuronidase (in words) ([3]; β-glucuronidase treatment): excellent yield"
"N#Cc1ccc(O[C@H]2CC[C@H](NC(=O)c3ccc(N4CCC(CN5CCN(c6cc7c(cc6F)C(=O)N(C6CCC(=O)N(CNC(=O)CNC(=O)CNC(=O)[C@H](Cc8ccccc8)NC(=O)CNC(=O)CNC(=O)CCCCCN8C(=O)C=CC8=O)C6=O)C7=O)CC5)CC4)nn3)CC2)cc1Cl (stereo partly drawn) [Compound (XV), 6-(4-{[4-(2-{1-[(2-{2-[(2S)-2-(2-{2-[6-(2,5-dioxopyrrol-1-yl)hexanamido]acetamido}acetamido)-3-phenylpropanamido]acetamido}acetamido)methyl]-2,6-dioxopiperidin-3-yl}-6-fluoro-1,3-dioxoisoindol-5-yl)piperazin-1-yl]methyl}piperidin-1-yl)-N-[(1r,4r)-4-(3-chloro-4-cyanophenoxy)cyclohexyl]pyridazine-3-carboxamide]",5.8%,"78.3%,",uncleaved 15.8%,lower yields of the desired payload,
"CSCCc1ccc(NC(=O)NCc2ccc3c(c2)CN(C2CCC(=O)N(CNC(=O)CNC(=O)CNC(=O)[C@H](Cc4ccccc4)NC(=O)CNC(=O)CNC(=O)CCCCCN4C(=O)C=CC4=O)C2=O)C3=O)cc1Cl (stereo partly drawn) [Compound (XVII), N-{[({[(1S)-1-[({[({[3-(5-{[({3-chloro-4-[2-(methylsulfanyl)ethyl]phenyl}carbamoyl)amino]methyl}-1-oxo-3H-isoindol-2-yl)-2,6-dioxopiperidin-1-yl]methyl}carbamoyl)methyl]carbamoyl}methyl)carbamoyl]-2-phenylethyl]carbamoyl}methyl)carbamoyl]methyl}-6-(2,5-dioxopyrrol-1-yl)hexanamide] ({Hexanoyl(6-maleimido)}-GGFGG-X1)",10.7%,"72.5%,",uncleaved 16.8%,lower yields of the desired payload,
"CNCCOCCc1ccc(NC(=O)NCc2ccc3c(c2)CN(C2CCC(=O)N(CNC(=O)CNC(=O)[C@H](Cc4ccccc4)NC(=O)CNC(=O)CNC(=O)CCCCCN4C(=O)C=CC4=O)C2=O)C3=O)cc1Cl (stereo partly drawn) [Compound (XVIII), N-{[({[(1S)-1-({[({3-[5-({[(3-chloro-4-{2-[2-(methylamino)ethoxy]ethyl}phenyl)carbamoyl]amino}methyl)-1-oxo-3H-isoindol-2-yl]-2,6-dioxopiperidin-1-yl}methyl)carbamoyl]methyl}carbamoyl)-2-phenylethyl]carbamoyl}methyl)carbamoyl]methyl}-6-(2,5-dioxopyrrol-1-yl)hexanamide]",97.8%,,,excellent yield,
B1,,,,,EC50 [4]: 0.27 nM
B2,,,,,EC50 [4]: 0.22 nM
B3,,,,,EC50 [4]: 0.22 nM
